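How tested: cells in 96-well plates exposed to compound for 48 hours at five concentrations. TGI is the concentration that stops growth completely.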
Experiments:
Experiment in all cases: NCI tumour cell line growth inhibition, 48 h
786-0 renal = tested on: 786-0 renal
M14 melanoma = tested on: M14 melanoma
EKVX NSCLC = tested on: EKVX NSCLC
SW-620 colon = tested on: SW-620 colon
NCI-H23 lung = tested on: NCI-H23 lung
TK-10 renal = tested on: TK-10 renal
KM12 colon = tested on: KM12 colon
NCI-H522 lung = tested on: NCI-H522 lung
SF-539 CNS = tested on: SF-539 CNS
CAKI-1 renal = tested on: CAKI-1 renal
UACC-62 melanoma = tested on: UACC-62 melanoma
KM20L2 colon = tested on: KM20L2 colon
K-562 leukemia = tested on: K-562 leukemia
HT29 colon = tested on: HT29 colon
LOX IMVI melanoma = tested on: LOX IMVI melanoma
HCC-2998 colon = tested on: HCC-2998 colon
SK-MEL-5 melanoma = tested on: SK-MEL-5 melanoma
RXF 393 renal = tested on: RXF 393 renal
MOLT-4 leukemia = tested on: MOLT-4 leukemia
HCT-116 colon = tested on: HCT-116 colon
IGROV1 ovarian = tested on: IGROV1 ovarian
SK-OV-3 ovarian = tested on: SK-OV-3 ovarian
DLD-1 colon = tested on: DLD-1 colon
SK-MEL-28 melanoma = tested on: SK-MEL-28 melanoma
SNB-78 CNS = tested on: SNB-78 CNS
A498 renal = tested on: A498 renal
ACHN renal = tested on: ACHN renal
NCI-H460 lung = tested on: NCI-H460 lung
OVCAR-4 ovarian = tested on: OVCAR-4 ovarian
HOP-62 NSCLC = tested on: HOP-62 NSCLC
SF-268 CNS = tested on: SF-268 CNS
COLO 205 colon = tested on: COLO 205 colon
CCRF-CEM leukemia = tested on: CCRF-CEM leukemia
UACC-257 melanoma = tested on: UACC-257 melanoma
LXFL 529 NSCLC = tested on: LXFL 529 NSCLC
DMS 273 small cell lung = tested on: DMS 273 small cell lung
SNB-19 CNS = tested on: SNB-19 CNS
SK-MEL-2 melanoma = tested on: SK-MEL-2 melanoma
M19-MEL melanoma = tested on: M19-MEL melanoma
A549 NSCLC = tested on: A549 NSCLC
UO-31 renal = tested on: UO-31 renal
OVCAR-3 ovarian = tested on: OVCAR-3 ovarian
SNB-75 CNS = tested on: SNB-75 CNS
SF-295 CNS = tested on: SF-295 CNS
SN12C renal = tested on: SN12C renal
DMS 114 small cell lung = tested on: DMS 114 small cell lung
NCI-H226 lung = tested on: NCI-H226 lung
OVCAR-8 ovarian = tested on: OVCAR-8 ovarian
HCT-15 colon = tested on: HCT-15 colon
MALME-3M melanoma = tested on: MALME-3M melanoma
RXF-631 renal = tested on: RXF-631 renal
OVCAR-5 ovarian = tested on: OVCAR-5 ovarian
U251 CNS = tested on: U251 CNS
RPMI-8226 leukemia = tested on: RPMI-8226 leukemia
HOP-18 NSCLC = tested on: HOP-18 NSCLC
HL-60(TB) leukemia = tested on: HL-60(TB) leukemia
HOP-92 NSCLC = tested on: HOP-92 NSCLC
XF 498 CNS = tested on: XF 498 CNS
SR leukemia = tested on: SR leukemia

Question: What does the source list for `O=C1CCCCCCCCCCC(=O)N2CCOCCOCCN1Cc1cccc(n1)C2`?
Answer: TGI (786-0 renal): > 100 µM; TGI (M14 melanoma): > 100 µM; TGI (EKVX NSCLC): > 100 µM; TGI (SW-620 colon): > 100 µM; TGI (NCI-H23 lung): > 100 µM; TGI (TK-10 renal): > 100 µM; TGI (KM12 colon): > 100 µM; TGI (NCI-H522 lung): > 100 µM; TGI (SF-539 CNS): > 100 µM; TGI (CAKI-1 renal): > 100 µM; TGI (UACC-62 melanoma): > 100 µM; TGI (KM20L2 colon): > 100 µM; TGI (K-562 leukemia): > 100 µM; TGI (HT29 colon): > 100 µM; TGI (LOX IMVI melanoma): > 100 µM; TGI (HCC-2998 colon): > 100 µM; TGI (SK-MEL-5 melanoma): > 100 µM; TGI (RXF 393 renal): > 100 µM; TGI (MOLT-4 leukemia): > 100 µM; TGI (HCT-116 colon): > 100 µM; TGI (IGROV1 ovarian): > 100 µM; TGI (SK-OV-3 ovarian): > 100 µM; TGI (DLD-1 colon): > 100 µM; TGI (SK-MEL-28 melanoma): > 100 µM; TGI (SNB-78 CNS): > 100 µM; TGI (A498 renal): > 100 µM; TGI (ACHN renal): > 100 µM; TGI (NCI-H460 lung): > 100 µM; TGI (OVCAR-4 ovarian): > 100 µM; TGI (HOP-62 NSCLC): > 100 µM; TGI (SF-268 CNS): > 100 µM; TGI (COLO 205 colon): > 100 µM; TGI (CCRF-CEM leukemia): > 100 µM; TGI (UACC-257 melanoma): > 100 µM; TGI (LXFL 529 NSCLC): > 100 µM; TGI (DMS 273 small cell lung): > 100 µM; TGI (SNB-19 CNS): > 100 µM; TGI (SK-MEL-2 melanoma): > 100 µM; TGI (M19-MEL melanoma): > 100 µM; TGI (A549 NSCLC): > 100 µM; TGI (UO-31 renal): > 100 µM; TGI (OVCAR-3 ovarian): > 100 µM; TGI (SNB-75 CNS): > 100 µM; TGI (SF-295 CNS): > 100 µM; TGI (SN12C renal): > 100 µM; TGI (DMS 114 small cell lung): > 100 µM; TGI (NCI-H226 lung): > 100 µM; TGI (OVCAR-8 ovarian): > 100 µM; TGI (HCT-15 colon): > 100 µM; TGI (MALME-3M melanoma): > 100 µM; TGI (RXF-631 renal): > 100 µM; TGI (OVCAR-5 ovarian): > 100 µM; TGI (U251 CNS): > 100 µM; TGI (RPMI-8226 leukemia): > 100 µM

Question: `CC1CC(c2ccc([N+](=O)[O-])cc2)=Nc2ccccc2S1` (stereo unspecified) was tested. Which TGI (786-0 renal) did it give?
Answer: 29.5 µM

Question: And the TGI (M14 melanoma)?
Answer: 27.2 µM

Question: And the TGI (EKVX NSCLC)?
Answer: 48.6 µM

Question: What about the TGI (HOP-18 NSCLC) of the same molecule?
Answer: > 100 µM

Question: And the TGI (SW-620 colon)?
Answer: 29.6 µM

Question: What about the TGI (NCI-H23 lung) of the same molecule?
Answer: 34.2 µM

Question: What about the TGI (TK-10 renal) of the same molecule?
Answer: 76.1 µM

Question: And the TGI (KM12 colon)?
Answer: 25.3 µM

Question: What about the TGI (NCI-H522 lung) of the same molecule?
Answer: 41.9 µM

Question: What about the TGI (SF-539 CNS) of the same molecule?
Answer: 32.9 µM

Question: And the TGI (HL-60(TB) leukemia)?
Answer: 36.4 µM

Question: And the TGI (HOP-92 NSCLC)?
Answer: 89.7 µM

Question: And the TGI (CAKI-1 renal)?
Answer: 83.5 µM

Question: What about the TGI (UACC-62 melanoma) of the same molecule?
Answer: 28.8 µM

Question: And the TGI (KM20L2 colon)?
Answer: 36.6 µM

Question: And the TGI (K-562 leukemia)?
Answer: 40.3 µM

Question: What about the TGI (HT29 colon) of the same molecule?
Answer: 26.3 µM

Question: And the TGI (LOX IMVI melanoma)?
Answer: 20.6 µM

Question: What about the TGI (HCC-2998 colon) of the same molecule?
Answer: 38.1 µM

Question: And the TGI (SK-MEL-5 melanoma)?
Answer: 42.4 µM

Question: What about the TGI (XF 498 CNS) of the same molecule?
Answer: 70.7 µM

Question: What about the TGI (RXF 393 renal) of the same molecule?
Answer: 32 µM

Question: What about the TGI (MOLT-4 leukemia) of the same molecule?
Answer: 63.6 µM

Question: And the TGI (HCT-116 colon)?
Answer: 3.56 µM

Question: And the TGI (IGROV1 ovarian)?
Answer: 35.4 µM

Question: What about the TGI (SK-OV-3 ovarian) of the same molecule?
Answer: 31 µM

Question: What about the TGI (DLD-1 colon) of the same molecule?
Answer: 25.5 µM

Question: And the TGI (SK-MEL-28 melanoma)?
Answer: 32.2 µM

Question: What about the TGI (SNB-78 CNS) of the same molecule?
Answer: > 100 µM

Question: What about the TGI (A498 renal) of the same molecule?
Answer: 36.1 µM

Question: And the TGI (ACHN renal)?
Answer: 44.2 µM

Question: And the TGI (NCI-H460 lung)?
Answer: > 100 µM

Question: And the TGI (OVCAR-4 ovarian)?
Answer: 43.9 µM

Question: What about the TGI (HOP-62 NSCLC) of the same molecule?
Answer: > 100 µM

Question: What about the TGI (SF-268 CNS) of the same molecule?
Answer: 38.9 µM

Question: What about the TGI (COLO 205 colon) of the same molecule?
Answer: 55.1 µM

Question: What about the TGI (CCRF-CEM leukemia) of the same molecule?
Answer: 39.1 µM

Question: What about the TGI (SR leukemia) of the same molecule?
Answer: 24.9 µM

Question: What about the TGI (UACC-257 melanoma) of the same molecule?
Answer: 35.9 µM

Question: What about the TGI (LXFL 529 NSCLC) of the same molecule?
Answer: 26 µM

Question: And the TGI (DMS 273 small cell lung)?
Answer: 41.7 µM

Question: What about the TGI (SNB-19 CNS) of the same molecule?
Answer: 39.5 µM

Question: And the TGI (M19-MEL melanoma)?
Answer: 26.7 µM

Question: And the TGI (A549 NSCLC)?
Answer: 60.1 µM

Question: And the TGI (UO-31 renal)?
Answer: 24.9 µM

Question: What about the TGI (OVCAR-3 ovarian) of the same molecule?
Answer: 23.7 µM

Question: What about the TGI (SNB-75 CNS) of the same molecule?
Answer: > 100 µM

Question: What about the TGI (SF-295 CNS) of the same molecule?
Answer: 45.3 µM

Question: And the TGI (SN12C renal)?
Answer: 35.1 µM

Question: What about the TGI (DMS 114 small cell lung) of the same molecule?
Answer: 36.6 µM

Question: And the TGI (NCI-H226 lung)?
Answer: 46.6 µM

Question: What about the TGI (OVCAR-8 ovarian) of the same molecule?
Answer: > 100 µM

Question: What about the TGI (HCT-15 colon) of the same molecule?
Answer: 29.3 µM

Question: And the TGI (MALME-3M melanoma)?
Answer: > 100 µM

Question: And the TGI (OVCAR-5 ovarian)?
Answer: 76.1 µM

Question: And the TGI (U251 CNS)?
Answer: 28.4 µM

Question: And the TGI (RPMI-8226 leukemia)?
Answer: 7.21 µM

From PubChem BioAssay (NCI)
